Experimental data taken from ChEMBL document CHEMBL1201862, “PubChem BioAssay data set” (2004).
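Dose response: 5 concentrations. Exposure: 48 h. Format: 96-well plates. Endpoint: linear interpolation; highest concentration if not reached. The concentration for 50% growth inhibition is given as GI50.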 Calls of active or inactive are those of the source. Cut-off read from the data, not from the text of the source: active = GI50 up to about 1.1 µM and inactive = higher.

Assays:
Assay in all cases: NCI tumour cell line growth inhibition, 48 h
U-251 = tested on: U-251
HCC 2998 = tested on: HCC 2998
A498 = tested on: A498
Malme-3M = tested on: Malme-3M
ACHN = tested on: ACHN
RPMI-8226 = tested on: RPMI-8226
RXF 393 = tested on: RXF 393
IGROV-1 = tested on: IGROV-1
KM12 = tested on: KM12
NCI-H226 = tested on: NCI-H226
SNB-19 = tested on: SNB-19
HL-60 = tested on: HL-60
SF-539 = tested on: SF-539
786-0 = tested on: 786-0
OVCAR-5 = tested on: OVCAR-5
NCI-H23 = tested on: NCI-H23

| Structure (SMILES) | GI50 (U-251) | GI50 (HCC 2998) | GI50 (A498) | GI50 (Malme-3M) | GI50 (ACHN) | GI50 (RPMI-8226) | GI50 (RXF 393) | GI50 (IGROV-1) | GI50 (KM12) | GI50 (NCI-H226) | GI50 (SNB-19) | GI50 (HL-60) | GI50 (SF-539) | GI50 (786-0) | GI50 (OVCAR-5) | GI50 (NCI-H23) |
| --- | --- | --- | --- | --- | --- | --- | --- | --- | --- | --- | --- | --- | --- | --- | --- | --- |
| COC(OC)c1cccc2c1C(=O)CCC1(CC2)OCCCCO1 | > 100 µM (inactive) | > 100 µM (inactive) | > 100 µM (inactive) | > 100 µM (inactive) | > 100 µM (inactive) | > 100 µM (inactive) | > 100 µM (inactive) | > 100 µM (inactive) | > 100 µM (inactive) | > 100 µM (inactive) | > 100 µM (inactive) | > 100 µM (inactive) | > 100 µM (inactive) | > 100 µM (inactive) | > 100 µM (inactive) | > 100 µM (inactive) |
| O=C1NC(=O)C2C(=O)NC(=O)C1C2c1c(Cl)cccc1Cl (stereo not drawn) | > 66.1 µM (inactive) | > 60.5 µM (inactive) | > 100 µM (inactive) | > 100 µM (inactive) | > 100 µM (inactive) | > 46.6 µM (inactive) | > 43.1 µM (inactive) | > 100 µM (inactive) | > 69.2 µM (inactive) | > 100 µM (inactive) | > 100 µM (inactive) | > 44.4 µM (inactive) | > 88.3 µM (inactive) | > 61.8 µM (inactive) | > 100 µM (inactive) | > 100 µM (inactive) |
| CC(=O)NNc1nc(C)c(C(=O)NNC(=O)C(=O)Nc2ccc(Cl)cc2Cl)s1 | 31.1 µM (inactive) | 40.6 µM (inactive) |  | 57 µM (inactive) | 29.2 µM (inactive) | 31.3 µM (inactive) |  | 63.5 µM (inactive) | 53.7 µM (inactive) | 34.2 µM (inactive) | 42.6 µM (inactive) | 37.4 µM (inactive) | 30.1 µM (inactive) | 40.7 µM (inactive) | 55.1 µM (inactive) | 32.8 µM (inactive) |
| Cc1cccc(N2C(=O)C(=O)C(c3nc4ccccc4s3)C(=O)C2=O)c1C | > 100 µM (inactive) | > 100 µM (inactive) | > 100 µM (inactive) | > 100 µM (inactive) | > 100 µM (inactive) | > 100 µM (inactive) |  | > 100 µM (inactive) |  | > 100 µM (inactive) | > 100 µM (inactive) | < 0.01 µM (active) | > 100 µM (inactive) | > 100 µM (inactive) | > 100 µM (inactive) | > 100 µM (inactive) |
| CC1(C)CC(c2c[nH]c3ccccc23)=CC2=Nc3ccccc3C21O (stereo not drawn) | 33.2 µM (inactive) |  | > 100 µM (inactive) | > 100 µM (inactive) | > 100 µM (inactive) | > 100 µM (inactive) | 37.8 µM (inactive) | > 100 µM (inactive) | > 100 µM (inactive) | 15.2 µM (inactive) | 65.2 µM (inactive) | > 100 µM (inactive) | 93.1 µM (inactive) | 43.7 µM (inactive) | > 100 µM (inactive) | 34 µM (inactive) |
| O=C(Nc1ccccc1)Oc1ccccc1C1CCCCC1 | 12 µM (inactive) | 25.9 µM (inactive) | 30.6 µM (inactive) | 21.1 µM (inactive) |  | 19 µM (inactive) | 2.96 µM (inactive) | 24.8 µM (inactive) | 26.8 µM (inactive) | 13.2 µM (inactive) | 63.1 µM (inactive) | 9.71 µM (inactive) | 25.8 µM (inactive) | 17.2 µM (inactive) | 11.8 µM (inactive) | 14.4 µM (inactive) |
| Cc1c(C(=O)C/C(=N/NC(=O)c2ccccc2O)C(=O)Nc2ccccc2C(C)C)[n+]([O-])c2ccccc2[n+]1[O-] | 45 µM (inactive) | 52.5 µM (inactive) | > 100 µM (inactive) | 48.6 µM (inactive) | 36.6 µM (inactive) |  | 75.3 µM (inactive) | 28.3 µM (inactive) | 53.6 µM (inactive) | > 100 µM (inactive) | > 100 µM (inactive) | 3.01 µM (inactive) | 40.6 µM (inactive) | 49.7 µM (inactive) | > 100 µM (inactive) | 19.4 µM (inactive) |
| C[C@H](NS(=O)(=O)c1ccc(NC(=O)c2ccccc2)cc1)C(=O)O | > 100 µM (inactive) | > 100 µM (inactive) | > 100 µM (inactive) | > 100 µM (inactive) | > 100 µM (inactive) | > 100 µM (inactive) | > 100 µM (inactive) | > 100 µM (inactive) | > 100 µM (inactive) |  | > 100 µM (inactive) | > 100 µM (inactive) | > 100 µM (inactive) | > 100 µM (inactive) | > 100 µM (inactive) | > 100 µM (inactive) |
| CN(C)CC1CCCC/C1=N\OC(=O)c1ccccc1 (stereo not drawn) | > 100 µM (inactive) | > 100 µM (inactive) | > 100 µM (inactive) | > 100 µM (inactive) | > 100 µM (inactive) | > 100 µM (inactive) | > 100 µM (inactive) | > 100 µM (inactive) | > 100 µM (inactive) | > 100 µM (inactive) |  | > 100 µM (inactive) | > 100 µM (inactive) | > 100 µM (inactive) | > 100 µM (inactive) | > 100 µM (inactive) |
| N#Cc1ccc(Oc2cccc(Oc3ccccc3)c2)cc1C#N | 71.1 µM (inactive) | > 10 µM (inactive) | 41.5 µM (inactive) | > 10 µM (inactive) | 54.3 µM (inactive) | > 10 µM (inactive) | 64 µM (inactive) | > 10 µM (inactive) | > 10 µM (inactive) | > 10 µM (inactive) | 28.5 µM (inactive) | 31.9 µM (inactive) | 99.5 µM (inactive) | > 10 µM (inactive) | > 10 µM (inactive) | 44.8 µM (inactive) |
| CCC1CNC(=O)CC1CC(=O)OC (stereo not drawn) | > 100 µM (inactive) | > 100 µM (inactive) |  | > 100 µM (inactive) | > 100 µM (inactive) |  | > 100 µM (inactive) | > 100 µM (inactive) | > 100 µM (inactive) | > 100 µM (inactive) | > 100 µM (inactive) | > 100 µM (inactive) |  | > 100 µM (inactive) | > 100 µM (inactive) | > 100 µM (inactive) |
| Cc1c(/C=C2\CC/C(=C\c3[nH]c(C(=O)OC(C)(C)C)c(C)c3C)C2=O)[nH]c(C(=O)OC(C)(C)C)c1C | > 100 µM (inactive) | > 100 µM (inactive) | > 100 µM (inactive) | > 100 µM (inactive) |  | > 100 µM (inactive) | > 100 µM (inactive) | > 100 µM (inactive) | > 100 µM (inactive) | > 100 µM (inactive) | > 100 µM (inactive) | > 100 µM (inactive) | > 100 µM (inactive) | > 100 µM (inactive) | > 100 µM (inactive) | > 100 µM (inactive) |
| c1ccc2c(CNCCCCCCCCCCCCNCc3cccc4ccccc34)cccc2c1 | 1.77 µM (inactive) |  | 6.08 µM (inactive) | 2.21 µM (inactive) | 1.91 µM (inactive) | 1.04 µM (active) | 1.36 µM (inactive) | 1.84 µM (inactive) | 1.61 µM (inactive) | 2.39 µM (inactive) |  | 1.47 µM (inactive) | 1.58 µM (inactive) | 1.81 µM (inactive) | 1.54 µM (inactive) | 1.51 µM (inactive) |
